In US11014915B2, “Selective estrogen receptor degrader” (SUN PHARMA ADVANCED RESEARCH COMPANY LIMITED, priority 2019, dated 2021):

How the values were obtained:
[1] = target: T1, ER-α in MCF-7 cells harboring ER wild type (Homo sapiens, UniProt P03372); test: ER-α degradation (SERD) assay, MCF-7 wild type; assay type: cell-based; conditions: for % of ER-α remaining at 1 nM / DC50: MCF-7 Wt, 4 days; for % of ER-α remaining at 1 nM: western blot, vehicle control as 100%; for DC50: read-out: ER-α degradation assay Wt IC50
T1 construct: evaluated in MCF-7 cells harboring ER wild type; endogenous in cells; host or cells: MCF-7
T1 sequence (P03372 1-595): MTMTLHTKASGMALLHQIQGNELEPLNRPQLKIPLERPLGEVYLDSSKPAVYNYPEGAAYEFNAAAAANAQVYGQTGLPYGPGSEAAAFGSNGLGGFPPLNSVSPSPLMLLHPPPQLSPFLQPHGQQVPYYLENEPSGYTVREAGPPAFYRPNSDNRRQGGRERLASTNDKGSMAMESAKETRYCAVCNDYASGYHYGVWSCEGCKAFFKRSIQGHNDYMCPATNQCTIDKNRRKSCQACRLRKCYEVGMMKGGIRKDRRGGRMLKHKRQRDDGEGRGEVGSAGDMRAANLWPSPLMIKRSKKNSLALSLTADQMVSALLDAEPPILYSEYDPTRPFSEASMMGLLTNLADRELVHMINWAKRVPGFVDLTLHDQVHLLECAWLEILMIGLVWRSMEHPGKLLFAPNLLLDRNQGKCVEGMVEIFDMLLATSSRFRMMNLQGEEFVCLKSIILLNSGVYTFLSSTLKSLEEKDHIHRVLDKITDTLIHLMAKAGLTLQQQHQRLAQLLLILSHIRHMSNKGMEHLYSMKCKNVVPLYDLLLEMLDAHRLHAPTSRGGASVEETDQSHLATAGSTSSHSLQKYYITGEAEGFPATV
Procedure: Selective Estrogen Receptor Degradation (SERD) Assay:
The SERD activity for the test compounds was evaluated in MCF-7 cells harboring ER wild type, and MCF-7 cells harboring mutant ER (WT/D538G and WT/Y537S). Briefly, cells were plated in phenol red free RPMI1640 medium supplemented with 5% charcoal stripped fetal bovine serum. The seeding density was 40000 cells/well for MCF-7 WT and MCF-7 D538G and 50000 cells/well MCF-7 Y537S in a 48-well plate. Following overnight incubation, the cells were treated with varying concentrations of test compounds (final concentration: 1000 nM to 0.01 nM, 0.1% DMSO) for 4 days. The cells were lysed using PBS supplemented with 1 mM EDTA, 0.5% Triton X-100, 5 mM NaF, 6 M urea, and 1× Protease inhibitor cocktail. The lysate was analyzed for ER alpha protein using western blot. For the western blot, the cell lysate (12.5-40 μg total protein) was resolved on a 10% SDS PAGE and transferred onto a PVDF membrane. The blots were blocked using 5% skim milk powder in 0.1% PBS-T for 1 hour at room temperature, followed by co-incubation with rabbit anti-human β-actin antibody and rabbit anti-human ERα antibody for 2 hours at room temperature. The blots were subsequently probed with anti-rabbit IgG-HRP conjugate as secondary antibody for 1 hour at room temperature. The blots were developed by using West Pico Super Signal Chemiluminescence substrate and the bands were processed for densitometry analysis using Image Lab software (BioRad version 6.0.0). ERα band intensity was normalized to that housekeeping protein for respective samples. The % ER remaining was calculated by normalizing against the vehicle control (as 100%).

[2] = Pharmacokinetic study in female SD rats, single oral dose; assay type: in vivo; conditions: rat, 50 mg/kg p.o.; for AUC(0-t) / Cmax / Tmax / half-life / AUC(0-inf): female, SD, plasma, po; for AUC(0-inf): read-out: AUCinf_obs
Text: In drug discovery it is very important to have good oral bioavailability and pharmacokinetic (PK) profile of the compound in order to become a good drug candidate for oral administration. Many compounds having potent in vitro efficacy fail to show therapeutic efficacy in human body. The lack of therapeutic efficacy of these compounds is mainly due to their inappropriate pharmacokinetic properties, such as low bioavailability, short half-life, rapid metabolism, or rapid clearance resulting in a short duration of action. Therefore a good drug candidate should have not only good potency, but also a good pharmacokinetic profile. The pharmacokinetic profile of the compounds of Formula Ia and Ib were determined as per the procedure provided below.
PK profiles were evaluated in female SD rats (n=2) following a single oral dose administration. Rats were fasted for 12-13 hours prior to dosing and feed was provided 2 hours after oral treatments. Dose formulations of compounds were prepared in Tween 80 (0.4% v/v of the total volume of suspension) in 0.5% carboxymethyl cellulose (CMC). Treatments were given at 50 mg/kg, p.o. To evaluate the plasma concentration, 0.2 mL blood was drawn from the rats through the retro-orbital plexus at 0.25, 1, 4, 8, 24, 48 and 72 hour time points post-treatment in Eppendorf tubes containing sodium heparin as an anticoagulant (100 IU/mL), and centrifuged immediately at 8500 rpm for 7 min at 4° C. Plasma was separated and stored at −70° C., until analysis. The analysis of samples was performed as per the method given below:
Working Calibration Standard and Quality Control Standards Preparation:
Working calibration standards were prepared having 0.10, 0.20, 2.00, 4.00, 8.00, 12.00, 16.00, and 20.00 μg/mL concentrations. Quality control standards were prepared at concentrations of […].
Preparation of Working Internal Standards (WIS):
Accurately weighed 5 mg of Carbamazepine was transferred into a 100 mL volumetric flask, dissolved and diluted up to the mark with diluent (0.1% formic acid in water:acetonitrile 30:70 v/v). A WIS of 5 μg/mL was prepared from the above solution.
5 μL of working standards and quality controls were spiked into 95 μL of blank plasma. 25 μl from the above spiked standards and quality controls were aliquoted into microcentrifuge tubes. 25 μL of study samples were also aliquoted into a micro centrifuge tube. 5 μL of WIS was added in zero standards to linearity and study samples except blank. The samples were further vortexed for 10-15 seconds. 150 μL of Milli Q water was added to all prepared samples and vortexed for 10-15 seconds. Samples were loaded on a preconditioned cartridge (preconditioning was done with 1 mL methanol followed by 1 mL Milli Q water). Cartridges were washed with 2×1 mL of Milli Q water. Elution was done with a 1 mL elution solution {acetonitrile: 0.1% formic acid solution (70:30)} in HPLC vials.
Chromatographic separation was achieved on Chiral pack ID (250*4.6 mm, 5μ) with a flow rate of 1.25 mL/min with splitter and injection volume of 20 μL. The sample cooler was maintained at 10° C. The column oven temperature was set to 30° C. The mobile phase consisted of:
Mobile phase A: 1.47 g of ammonium bicarbonate into 1 L of water, 1 ml DEA, pH 9.2±0.1
Mobile phase B: methanol,
wherein mobile phase A was mixed with mobile phase B in the ratio of 30:70 v/v, respectively. The retention time of the compound of Formula Ia, compound of Formula Ib and the internal standard were about 8.7, 7.6 and 4.2 min, respectively. The overall chromatographic run time was 16 minutes.
Detection was performed by tandem mass spectrometry (TSQ Quantum, Discovery MAX, Thermo Electron Corporation) and peak areas were integrated using LCquan software version 2.9 QF1. […]

| % of ER-α remaining at 1 nM [1] [%] | DC50 [1] [nM] | Potency of Formula Ia relative to Formula Ib in ER-α degradation ([1]; wild type) | AUC(0-t) [2] [ng·h/mL] | Cmax [2] [ng/mL] | Tmax [2] [h] | half-life [2] [h] | AUC(0-inf) [2] [ng·h/mL] | AUClast of Formula Ia relative to Formula Ib [2] | Cmax of Formula Ia relative to Formula Ib [2] | SMILES |
| --- | --- | --- | --- | --- | --- | --- | --- | --- | --- | --- |
| 16.3 | 0.3 | about 34 times | 7580 | 343 | 4 | 26 | 9800 | about 4.2 fold | about 2.9 fold | CC1=C(c2cc(F)cc(F)c2)[C@H](c2ccc(/C=C/CN3CC(CF)C3)cc2)Oc2cc(O)ccc21 [Formula Ia, (2S)-3-(3,5-difluorophenyl)-2-[4-[(E)-3-[3-(fluoromethyl)azetidin-1-yl]prop-1-enyl]phenyl]-4-methyl-2H-chromen-7-ol] |
| 81.5 | 10.2 | – | 1800 | 119 | 4 | 10 | 2360 | – | – | CC1=C(c2cc(F)cc(F)c2)[C@@H](c2ccc(/C=C/CN3CC(CF)C3)cc2)Oc2cc(O)ccc21 [Formula Ib, (2R)-3-(3,5-difluorophenyl)-2-[4-[(E)-3-[3-(fluoromethyl)azetidin-1-yl]prop-1-enyl]phenyl]-4-methyl-2H-chromen-7-ol] |
